Patent US9770026B2, “Substituted pyrimidine compound and uses thereof” (Shenyang Sinochem Agrochemicals R&D Co., Ltd., priority 2012, dated 2017)

Key:
Diamond back moth = assay: insecticidal activity against diamond back moth, airbrush spray; assay type: in vivo
Protocol: (§1) Compounds were dissolved in mixed solvent (acetone:methanol=1:1), and diluted to required concentration with water containing 0.1% of tween 80.
(§2) Diamond back moth, armyworm, peach aphid and carmine spider mite were used as targets and the method of spraying by airbrush was used for determination of insecticidal biassays.
(§3) The method of spraying by airbrush: The cabbage leaves were made into plates of 2 cm diameter by use of punch. A test solution (0.5 ml) was sprayed by airbrush at the pressure of 0.7 kg/cm^2 to both sides of every plate. 10 Second instar larvae were put into the petri-dishes after the leaf disc air-dried and 3 replicates were set for each treatment. Then the insects were maintained in observation room (25° C., 60˜70% R.H.). Scores were conducted and mortalities were calculated after 72 hrs.

armyworm = assay: bioactivity test against armyworm, airbrush spray; assay type: in vivo
Protocol: as §1, §2
as §3, with “corn” for “cabbage”, “(25 °C,” for “(25° C.,”, “h.” for “hrs.”

[1] = system: Green peach aphids (Myzus Persicae Sulzer); assay: bioactivity test against green peach aphid, airbrush foliar spray; assay type: in vivo
Procedure, shortened: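 Aphids (15-30 per cabbage leaf disc) on moist filter paper were airbrush-sprayed at 10 psi, 0.5 mL, with compound from acetone:methanol (1:1) diluted in water with 0.1% tween 80. Held at 25±1 C, 60±5% RH; survivors counted after 48 hrs to give death rates.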

carmine spider mite = assay: bioactivity test against carmine spider mite, airbrush spray; assay type: in vivo; conditions: Tetranychus cinnabarinus, 72 h, mortality after 72 hrs
Procedure, shortened: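 Broadbean seedlings infested with adult mites were sprayed with compound (acetone/methanol stock diluted in 0.1% Tween 80 water) by airbrush at 0.7 kg/cm^2, 0.5 ml. Three replicates were run. Mortality was scored after 72 hrs.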

corn rust = assay: protectant activity in vivo against corn rust
cucumber downy mildew = assay: protectant activity in vivo against cucumber downy mildew
wheat powdery mildew = assay: protectant activity in vivo against wheat powdery mildew; conditions: protectant activity

FC(F)c1ncnc(NCCc2ccc(Oc3ccc(Cl)cc3)cc2)c1Cl [II-8915]
pest or weed control at 600 ppm (Diamond back moth; 72 h, 600 ppm, mortality after 72 hrs, read-out: control (test results against diamond back moth)): 100% | pest or weed control at 10 µg/mL (armyworm; 72 h, 10 mg/L, read-out: Insecticidal activity against armyworm (%)): 44% | pest or weed control at 100 µg/mL (armyworm; 72 h, 100 mg/L, read-out: Insecticidal activity against armyworm (%)): 95% | pest or weed control at 600 µg/mL (armyworm; 72 h, 600 mg/L, read-out: Insecticidal activity against armyworm (%)): 100% | pest or weed control at 100 ppm (armyworm; 72 h, 100 ppm, mortality after 72 h): 80 to 99% | pest or weed control at 600 ppm (armyworm; 72 h, 600 ppm, mortality after 72 h): 100% | pest or weed control at 1.25 µg/mL ([1]; Myzus persicae, foliar, 48 h, 1.25 mg/L, contrastive test, read-out: Insecticidal activity against peach aphid (%)): 100% | pest or weed control at 2.5 µg/mL ([1]; Myzus persicae, foliar, 48 h, 2.5 mg/L, contrastive test, read-out: Insecticidal activity against peach aphid (%)): 100% | pest or weed control at 5 µg/mL ([1]; Myzus persicae, foliar, 48 h, 5 mg/L, contrastive test, read-out: Insecticidal activity against peach aphid (%)): 100% | pest or weed control at 10 µg/mL ([1]; Myzus persicae, foliar, 48 h, 10 mg/L, contrastive test, read-out: Insecticidal activity against peach aphid (%)): 100% | pest or weed control at 100 µg/mL ([1]; Myzus persicae, foliar, 48 h, 100 mg/L, contrastive test, read-out: Insecticidal activity against peach aphid (%)): 100% | pest or weed control at 600 µg/mL ([1]; Myzus persicae, foliar, 48 h, 600 mg/L, contrastive test, read-out: Insecticidal activity against peach aphid (%)): 100% | pest or weed control at 2.5 ppm ([1]; Myzus persicae, foliar, 48 h, 2.5 ppm, death rate after 48 hrs): 100% | pest or weed control at 5 ppm ([1]; Myzus persicae, foliar, 48 h, 5 ppm, death rate after 48 hrs): 100% | pest or weed control at 10 ppm ([1]; Myzus persicae, foliar, 48 h, 10 ppm, death rate after 48 hrs): 100% | pest or weed control at 100 ppm ([1]; Myzus persicae, foliar, 48 h, 100 ppm, death rate after 48 hrs): 100% | pest or weed control at 600 ppm ([1]; Myzus persicae, foliar, 48 h, 600 ppm, death rate after 48 hrs): 100% | pest or weed control at 100 ppm (carmine spider mite; 100 ppm): 100% | pest or weed control at 600 ppm (carmine spider mite; 600 ppm): 100% | pest or weed control at 0.4 µg/mL (corn rust; Zea mays, 168 h, read-out: control effect against corn rust (%), 0.4 mg/L, protectant activity): 30% | pest or weed control at 1.6 µg/mL (corn rust; Zea mays, 168 h, read-out: control effect against corn rust (%), 1.6 mg/L, protectant activity): 80% | pest or weed control at 6.25 µg/mL (corn rust; Zea mays, 168 h, read-out: control effect against corn rust (%), 6.25 mg/L, protectant activity): 100% | pest or weed control at 25 µg/mL (corn rust; Zea mays, 168 h, read-out: control effect against corn rust (%), 25 mg/L, protectant activity): 100% | pest or weed control at 100 µg/mL (corn rust; Zea mays, 168 h, read-out: control effect against corn rust (%), 100 mg/L, protectant activity): 100% | pest or weed control at 400 µg/mL (corn rust; Zea mays, 168 h, read-out: control effect against corn rust (%), 400 mg/L, protectant activity): 100% | pest or weed control at 6.25 ppm (corn rust; Zea mays, 168 h, read-out: protectant activity against corn rust in vivo, 6.25 ppm): 100% | pest or weed control at 25 ppm (corn rust; Zea mays, 168 h, read-out: protectant activity against corn rust in vivo, 25 ppm): 100% | pest or weed control at 100 ppm (corn rust; Zea mays, 168 h, read-out: protectant activity against corn rust in vivo, 100 ppm): 100% | pest or weed control at 400 ppm (corn rust; Zea mays, 168 h, read-out: protectant activity against corn rust in vivo, 400 ppm): 100% | pest or weed control at 3.125 µg/mL (cucumber downy mildew; Cucumis sativus, 168 h, read-out: control effect against cucumber downy mildew (%), 3.125 mg/L, protectant activity): 20% | pest or weed control at 6.25 µg/mL (cucumber downy mildew; Cucumis sativus, 168 h, read-out: control effect against cucumber downy mildew (%), 6.25 mg/L, protectant activity): 90% | pest or weed control at 12.5 µg/mL (cucumber downy mildew; Cucumis sativus, 168 h, read-out: control effect against cucumber downy mildew (%), 12.5 mg/L, protectant activity): 95% | pest or weed control at 25 µg/mL (cucumber downy mildew; Cucumis sativus, 168 h, read-out: control effect against cucumber downy mildew (%), 25 mg/L, protectant activity): 99% | pest or weed control at 50 µg/mL (cucumber downy mildew; Cucumis sativus, 168 h, read-out: control effect against cucumber downy mildew (%), 50 mg/L, protectant activity): 100% | pest or weed control at 100 µg/mL (cucumber downy mildew; Cucumis sativus, 168 h, read-out: control effect against cucumber downy mildew (%), 100 mg/L, protectant activity): 100% | pest or weed control at 400 µg/mL (cucumber downy mildew; Cucumis sativus, 168 h, read-out: control effect against cucumber downy mildew (%), 400 mg/L, protectant activity): 100% | pest or weed control at 6.25 ppm (cucumber downy mildew; Cucumis sativus, 168 h, read-out: protectant activity against cucumber downy mildew in vivo, 6.25 ppm): 80 to 99% | pest or weed control at 12.5 ppm (cucumber downy mildew; Cucumis sativus, 168 h, read-out: protectant activity against cucumber downy mildew in vivo, 12.5 ppm): 80 to 99% | pest or weed control at 25 ppm (cucumber downy mildew; Cucumis sativus, 168 h, read-out: protectant activity against cucumber downy mildew in vivo, 25 ppm): 80 to 99% | pest or weed control at 50 ppm (cucumber downy mildew; Cucumis sativus, 168 h, read-out: protectant activity against cucumber downy mildew in vivo, 50 ppm): 80 to 99% | pest or weed control at 100 ppm (cucumber downy mildew; Cucumis sativus, 168 h, read-out: protectant activity against cucumber downy mildew in vivo, 100 ppm): 100% | pest or weed control at 400 ppm (cucumber downy mildew; Cucumis sativus, 168 h, read-out: protectant activity against cucumber downy mildew in vivo, 400 ppm): 100%

CCc1ncnc(NC(C)c2ccc(Oc3ccc(F)cc3)nc2)c1Cl (stereo not shown) [CK9, reference compound]
Insecticidal activity against diamond back moth (%) (Diamond back moth; 10 mg/L): 25% | Insecticidal activity against diamond back moth (%) (Diamond back moth; 100 mg/L): 45% | Insecticidal activity against diamond back moth (%) (Diamond back moth; 600 mg/L): 100% | Insecticidal activity against armyworm (%) (armyworm; 600 mg/L): 40% | Insecticidal activity against peach aphid (%) ([1]; 10 mg/L, contrastive test): 23% | Insecticidal activity against peach aphid (%) ([1]; 100 mg/L, contrastive test): 79% | Insecticidal activity against peach aphid (%) ([1]; 600 mg/L, contrastive test): 100% | control effect against corn rust (%) (corn rust; 6.25 mg/L, protectant activity): 0% | control effect against corn rust (%) (corn rust; 25 mg/L, protectant activity): 20% | control effect against corn rust (%) (corn rust; 100 mg/L, protectant activity): 100% | control effect against corn rust (%) (corn rust; 400 mg/L, protectant activity): 100% | control effect against wheat powdery mildew (%) (wheat powdery mildew; 6.25 mg/L): 0% | control effect against wheat powdery mildew (%) (wheat powdery mildew; 25 mg/L): 0% | control effect against wheat powdery mildew (%) (wheat powdery mildew; 100 mg/L): 0% | control effect against wheat powdery mildew (%) (wheat powdery mildew; 400 mg/L): 100% | control effect against cucumber downy mildew (%) (cucumber downy mildew; 25 mg/L, protectant activity): 70% | control effect against cucumber downy mildew (%) (cucumber downy mildew; 50 mg/L, protectant activity): 90% | control effect against cucumber downy mildew (%) (cucumber downy mildew; 100 mg/L, protectant activity): 98% | control effect against cucumber downy mildew (%) (cucumber downy mildew; 400 mg/L, protectant activity): 100%
